Columns and labels:
[1] = test system: transglutaminase 1 (TGM1); assay: cDNA array, gene expression of TGM1; assay type: cell-based; conditions: primary epidermal keratinocytes, 24 hours
Description: (§1) The assay is carried out using primary epidermal keratinocytes. After incubation at 37° C. and in a 5% CO2 atmosphere for 48 hours, the culture medium (DPBS and HyQtase cell detachment solution) is removed, and the test substances 4-hydroxy-6-methyl-2-pyrone Ia (40 μM) and 3-((E)-3,7-dimethylocta-2,6-dienyl)-4-hydroxy-6-methyl-2-pyrone Ii ([…]) in assay medium (keratinocytes basal medium M2 and supplement mix) are added. All-trans retinoic acid is used as positive control. The cells are then cultured at 37° C. and under 5% CO2 for 24 hours.
(§2) The mRNA is isolated using the RNEASY Minikit test kit from Qiagen in accordance with the instruction manual. 1 μg of the RNA is then in each case converted into cDNA with the aid of the Firsts Strand cDNA synthesis kit from Roche. The 20 μl of cDNA obtained are diluted 1/10, and 110 μl of TaqMan™ Universal PCR Master Mix are in each case added to 110 μl of the cDNA samples. 100 μl are pipetted per slot into the Custom TaqMan™ array cards. The cards are sealed, centrifuged and then measured using the TaqMan™ 7900HT. The values obtained are standardised. Values less than or equal to −1.5 indicate moderate to strong downregulation of the expression of the genes investigated.

desmoplakin (DSP) = assay: cDNA array, gene expression of DSP; assay type: cell-based; conditions: primary epidermal keratinocytes, 24 hours
Description: as §1, §2
(§3) A second group of genes (Table 2) considered encodes for proteins which correlate with cell-cell connections. Corneodesmosin (CDSN), desmoglein 1 (DSG1), desmoplakin (DSP) and desmocollin 3 (DSC3) are tested, the associated regulation factors are shown in Table 2. […] The downregulation of this protein family is known for retinoids.

calgranulin B (S100A9) = assay: cDNA array, gene expression of S100A9; assay type: cell-based; conditions: primary epidermal keratinocytes, 24 hours
Description: as §1, §2

loricrin (LOR) = assay: cDNA array, gene expression of LOR; assay type: cell-based; conditions: primary epidermal keratinocytes, 24 hours
Description: (§4) The assay is carried out using primary epidermal keratinocytes. […] All-trans retinoic acid is used as positive control. The cells are then cultured at 37° C. and under 5% CO2 for 24 hours.
as §2

[2] = test system: skin explants from the lower abdomen tissue; assay: Ex-vivo study on skin explants, histology; design: species or system human
Description: Histological explants having an average diameter of 10 mm from the lower abdomen tissue of a person are prepared. The pieces of tissue are stored in BEM medium in a moist, 5% CO2 atmosphere at 37° C. The tissue is divided into 3 batches of 6 explants each.
Batch K represents the negative control. Only the vehicle is applied to batch V. Batch P is treated with 4-hydroxy-6-methyl-2-pyrone Ia (1% in Mygliol/ethanol 80/20). 30 μl of the 1% substance solutions in Myliol/ethanol (80/20) are applied using a round filter paper and allowed to act for 2 hours. Applications are carried out on day 0, 1, 4, 6 and 7.
On the 8th day, 3 pieces of tissue from each batch are fixed in Bouin solution. After fixing for 48 hours, the samples are dehydrated by means of Leica TP 1020 and soaked in paraffin. Tissue sections with a thickness of 5 μm are produced from the paraffin blocks using a microtome and mounted on Superfrost specimen slides. The microscopic investigation is carried out using a Leica Orthoplan microscope after the tissue sections mounted on specimen slides have been stained with Masson-Goldner trichrome stain. In order to be able to assess the effect of the substances, the thickness of the epidermis or the change thereof is measured.

[3] = test system: calmodulin-like protein (CALML5); assay: cDNA array, gene expression of CALML5; assay type: cell-based; conditions: primary epidermal keratinocytes, 24 hours
Description: as §4, §2

involucrin (IVL) = assay: cDNA array, gene expression of IVL; assay type: cell-based; conditions: primary epidermal keratinocytes, 24 hours
Description: as §4, §2

filaggrin (FLG) = assay: cDNA array, gene expression of FLG; assay type: cell-based; conditions: primary epidermal keratinocytes, 24 hours
Description: as §1, §2

repetin (RPTN) = assay: cDNA array, gene expression of RPTN; assay type: cell-based; conditions: primary epidermal keratinocytes, 24 hours
Description: as §4, §2

Corneodesmosin (CDSN) = assay: cDNA array, gene expression of CDSN; assay type: cell-based; conditions: primary epidermal keratinocytes, 24 hours
Description: as §1, §2, §3

desmocollin 3 (DSC3) = assay: cDNA array, gene expression of DSC3; assay type: cell-based; conditions: primary epidermal keratinocytes, 24 hours
Description: as §1, §2, §3

desmoglein 1 (DSG1) = assay: cDNA array, gene expression of DSG1; assay type: cell-based; conditions: primary epidermal keratinocytes, 24 hours
Description: as §1, §2, §3

calgranulin A (S100A8) = assay: cDNA array, gene expression of S100A8; assay type: cell-based; conditions: primary epidermal keratinocytes, 24 hours
Description: as §1, §2

normal human adipocytes = assay: Lipolysis, unesterified fatty acids liberated from adipocytes; assay type: cell-based; conditions: 2 hours; for lipolytic activity, dependence on concentration: 0.25 mM, 0.5 mM, 1 mM and 2 mM
Description: The study is carried out using normal human adipocytes originating from the lower abdomen biopsy of a person. The hypodermis is isolated from the biopsy and incubated at 37° C. for 30 minutes with collagenase solution. The separated adipocytes are washed and diluted with assay medium (MEM without Phenol Red, penicillin 25 UI/ml/streptomycin […], L-glutamine 2 mM, bovine serum albumin (BSA), fatty acid-free: 0.5% (p/v)).
The test solutions or the caffeine reference are added to the cell suspensions, and the mixtures are incubated at 37° C. and in a 5% CO2 atmosphere for 2 hours.
After this time, the unesterified fatty acids liberated from the samples are quantified. The measurement is carried out using a Wako NEFA-C test kit in accordance with the instruction manual.

Cc1cc(O)cc(=O)o1 [Ia, 4-hydroxy-6-methyl-2-pyrone]
TGM1 gene expression, standardised value ([1]; 40 μM): −1.26
DSP gene expression, regulation factor (desmoplakin (DSP); 40 μM): −1.40
S100A9 gene expression, standardised value (calgranulin B (S100A9); 40 μM): −2.18
LOR gene expression, standardised value (loricrin (LOR); 40 μM): −4.56
collagen network in the dermis along the dermo-epidermal junction zone ([2]; 1% in Mygliol/ethanol 80/20, topical on day 0, 1, 4, 6 and 7, day 8): becomes denser
thicker epidermis compared with the vehicle ([2]; 1% in Mygliol/ethanol 80/20, topical on day 0, 1, 4, 6 and 7, measured on the 8th day): 10%
CALML5 gene expression, standardised value ([3]; 40 μM): −3.14
IVL gene expression, standardised value (involucrin (IVL); 40 μM): −1.76
FLG gene expression, standardised value (filaggrin (FLG); 40 μM): 1.01
RPTN gene expression, standardised value (repetin (RPTN); 40 μM): −3.33
CDSN gene expression, regulation factor (Corneodesmosin (CDSN); 40 μM): −2.14
DSC3 gene expression, regulation factor (desmocollin 3 (DSC3); 40 μM): −1.69
DSG1 gene expression, regulation factor (desmoglein 1 (DSG1); 40 μM): −1.39
S100A8 gene expression, standardised value (calgranulin A (S100A8); 40 μM): −1.74

COc1cc(C)oc(=O)c1 [Ib, 4-Methoxy-6-methyl-2-pyrone]
lipolytic activity, dependence on concentration (normal human adipocytes): increase the lipolytic activity as a function of concentration
stimulation of lipolysis (triacylglycerin degradation) (normal human adipocytes; 2 mM): 82%

CC(C)=CCC/C(C)=C/Cc1c(O)cc(C)oc1=O [Ii, 3-((E)-3,7-Dimethylocta-2,6-dienyl)-4-hydroxy-6-methyl-2-pyrone]
TGM1 gene expression, standardised value ([1]; 50 μM): −1.56
DSP gene expression, regulation factor (desmoplakin (DSP); 50 μM): −1.53
S100A9 gene expression, standardised value (calgranulin B (S100A9); 50 μM): −1.48
LOR gene expression, standardised value (loricrin (LOR); 50 μM): −1.59
CALML5 gene expression, standardised value ([3]; 50 μM): −2.58
IVL gene expression, standardised value (involucrin (IVL); 50 μM): −3.82
FLG gene expression, standardised value (filaggrin (FLG); 50 μM): −4.67
RPTN gene expression, standardised value (repetin (RPTN); 50 μM): 1.57
CDSN gene expression, regulation factor (Corneodesmosin (CDSN); 50 μM): −13.20
DSC3 gene expression, regulation factor (desmocollin 3 (DSC3); 50 μM): −1.14
stimulation of lipolysis (triacylglycerin degradation) (normal human adipocytes; 1 mM): −60%
stimulation of lipolysis (triacylglycerin degradation) (normal human adipocytes; 2 mM): −67%
DSG1 gene expression, regulation factor (desmoglein 1 (DSG1); 50 μM): −8.20
S100A8 gene expression, standardised value (calgranulin A (S100A8); 50 μM): −2.93

CCCCC(CC)Oc1cc(C)oc(=O)c1 (centres unmarked) [Ij, 4-(1-Ethylpentyloxy)-6-methyl-2-pyrone]
lipolytic activity, dependence on concentration (normal human adipocytes): increase the lipolytic activity as a function of concentration
stimulation of lipolysis (triacylglycerin degradation) (normal human adipocytes; 2 mM): 57%

CC1=C(/C=C/C(C)=C/C=C/C(C)=C/C(=O)O)C(C)(C)CCC1 [all-trans retinoic acid, All-trans retinoic acid, reference compound]
TGM1 gene expression, standardised value ([1]; 5 μM): −3.56
DSP gene expression, regulation factor (desmoplakin (DSP); concentration not given): −1.56
S100A9 gene expression, standardised value (calgranulin B (S100A9); 5 μM): −3.49
LOR gene expression, standardised value (loricrin (LOR); 5 μM): −7.01
CALML5 gene expression, standardised value ([3]; 5 μM): −2.93
IVL gene expression, standardised value (involucrin (IVL); 5 μM): −4.05
FLG gene expression, standardised value (filaggrin (FLG); 5 μM): −3.20
RPTN gene expression, standardised value (repetin (RPTN); 5 μM): −2.56
CDSN gene expression, regulation factor (Corneodesmosin (CDSN); concentration not given): −2.37
DSC3 gene expression, regulation factor (desmocollin 3 (DSC3); concentration not given): −1.23
DSG1 gene expression, regulation factor (desmoglein 1 (DSG1); concentration not given): −9.22
S100A8 gene expression, standardised value (calgranulin A (S100A8); 5 μM): −3.26
